According to article PMC7719179, “Small molecule inhibition of Dynamin-dependent endocytosis targets multiple niche signals and impairs leukemia stem cells” (Nature Communications, 2020):

Assays:
[1] = test system: Ba/F3-SGM3R cells; assay: Survival of cytokine-dependent Ba/F3-SGM3R cells, 48 h; assay type: cell-based, murine; details: result in words
Text: The coding sequence of murine Csf2ra (gm-csfr) and c-Kit was amplified by PCR from cDNA of bone marrow mononuclear cells of a healthy WT donor using primers mGmcsfr-FL-F and mGmcsfr-FL-R, and mKit-FL-F and mKit-FL-R, respectively (Table 3). The PCR product was cloned into the XhoI and EcoRI sites of pMIG-R1, which was kindly given by Pear et al.[82],[83]. Ba/F3 cells were infected with pMIG-R1/Gmcsfr retroviral supernatants produced in 293T cells, transduced cells were sorted with a BD Influx (BD Australia) and selected by culture in medium supplemented with 25 ng/mL rmGm-csf (#305-03, Pepro Tech, Rocky Hill NJ, USA) for 7 days. Finally, Ba/F3 cells stably expressing Gm-csfr were infected with pMIG-R1/Kit retroviral supernatants produced in 293T cells to generate Ba/F3-SMG3R cells, which were sorted with a BD Influx and maintained in medium supplemented with 5 ng/mL rmIL-3 (#213-13, Pepro Tech, Rocky Hill NJ, USA).
Supplementary Figure 8. […]
Basal levels of live cells were measured in BaF3-SGM3R cells cultured without cytokines (white bar). b, Levels of activated Stat5 (pStat5) in BaF3-SGM3 R cells stimulated with IL-3 (purple bars) and GM -CSF (yellow bars), and SCF-induced phospho-Erk (green bars), treated with increasing doses of Dynole 34-2 assessed by flow cytometry.

[2] = test system: IL-3R, GM-CSFR and KIT internalization in patient-derived AML cells; assay: Surface expression of IL-3R, GM-CSFR and KIT in patient-derived AML cells; assay type: cell-based, human; details: for GM-CSFR FOLD / IL-3R FOLD / KIT FOLD: relative expression vs Unstimulated

In the case of CCCCCCCCNC(=O)C(C#N)=Cc1cn(CCCN(C)C)c2ccccc12 [Dynole 34-2, 2-Cyano-N-octyl-3-(1-(3-dimethylaminopropyl)-1H-indol-3-yl)-acrylamide], the “cell death of Ba/F3-SGM3R cells” value [1] is reported as “induced cell death in a dose-dependent manner”, the “GM-CSFR MFI” value ([2]; AML01-021) is reported as 11447 MFI and the “IL-3R MFI” value ([2]; AML01-021) is reported as 745 MFI. For the same molecule, the “KIT MFI” value ([2]; AML01-021) was 1568 MFI, the “GM-CSFR FOLD” value ([2]; AML01-021) was 1.03 and the “IL-3R FOLD” value ([2]; AML01-021) was 1.00. For the same molecule, the “KIT FOLD” value ([2]; AML01-021) was 0.89, the “GM-CSFR MFI” value ([2]; AML01-050) was 15894 MFI and the “IL-3R MFI” value ([2]; AML01-050) was 4010 MFI. For the same molecule, the “KIT MFI” value ([2]; AML01-050) was 273 MFI, the “GM-CSFR FOLD” value ([2]; AML01-050) was 1.01 and the “IL-3R FOLD” value ([2]; AML01-050) was 1.14. The “KIT FOLD” value ([2]; AML01-050) was 1.25, the “GM-CSFR MFI” value ([2]; AML01-072) was 971 MFI and the “IL-3R MFI” value ([2]; AML01-072) was 7383 MFI. For the same molecule, the “KIT MFI” value ([2]; AML01-072) was 1318 MFI, the “GM-CSFR FOLD” value ([2]; AML01-072) was 1.12 and the “IL-3R FOLD” value ([2]; AML01-072) was 1.05. For the same molecule, the “KIT FOLD” value ([2]; AML01-072) was 1.74, the “GM-CSFR MFI” value ([2]; AML01-226) was 10157 MFI and the “IL-3R MFI” value ([2]; AML01-226) was 983 MFI. For the same molecule, the “KIT MFI” value ([2]; AML01-226) was 612 MFI, the “GM-CSFR FOLD” value ([2]; AML01-226) was 1.05 and the “IL-3R FOLD” value ([2]; AML01-226) was 0.99. For the same molecule, the “KIT FOLD” value ([2]; AML01-226) was 0.58, the “GM-CSFR MFI” value ([2]; AML01-307) was 649 MFI and the “IL-3R MFI” value ([2]; AML01-307) was 4023 MFI. For the same molecule, the “KIT MFI” value ([2]; AML01-307) was 5991 MFI, the “GM-CSFR FOLD” value ([2]; AML01-307) was 1.01 and the “IL-3R FOLD” value ([2]; AML01-307) was 0.94. For the same molecule, the “KIT FOLD” value ([2]; AML01-307) was 0.93, the “GM-CSFR MFI” value ([2]; AML02-078) was 13405 MFI and the “IL-3R MFI” value ([2]; AML02-078) was 4410 MFI. For the same molecule, the “KIT MFI” value ([2]; AML02-078) was 1516 MFI, the “GM-CSFR FOLD” value ([2]; AML02-078) was 1.27 and the “IL-3R FOLD” value ([2]; AML02-078) was 1.17. For the same molecule, the “KIT FOLD” value ([2]; AML02-078) was 0.91, the “GM-CSFR MFI” value ([2]; AML02-123) was 1180 MFI and the “IL-3R MFI” value ([2]; AML02-123) was 2544 MFI. For the same molecule, the “KIT MFI” value ([2]; AML02-123) was 34855 MFI, the “GM-CSFR FOLD” value ([2]; AML02-123) was 1.42 and the “IL-3R FOLD” value ([2]; AML02-123) was 1.10. The “KIT FOLD” value ([2]; AML02-123) was 0.82, the “GM-CSFR MFI” value ([2]; AML02-232) was 16645 MFI and the “IL-3R MFI” value ([2]; AML02-232) was 506 MFI. For the same molecule, the “KIT MFI” value ([2]; AML02-232) was 357 MFI, the “GM-CSFR FOLD” value ([2]; AML02-232) was 1.09 and the “IL-3R FOLD” value ([2]; AML02-232) was 1.00. For the same molecule, the “KIT FOLD” value ([2]; AML02-232) was 0.82, the “GM-CSFR MFI” value ([2]; AML03-330) was 10769 MFI and the “IL-3R MFI” value ([2]; AML03-330) was 356 MFI. The “KIT MFI” value ([2]; AML03-330) was 372 MFI, the “GM-CSFR FOLD” value ([2]; AML03-330) was 1.12 and the “IL-3R FOLD” value ([2]; AML03-330) was 0.98. The “KIT FOLD” value ([2]; AML03-330) was 0.79, the “GM-CSFR MFI” value ([2]; AML03-331) was 9530 MFI and the “IL-3R MFI” value ([2]; AML03-331) was 798 MFI. For the same molecule, the “KIT MFI” value ([2]; AML03-331) was 1709 MFI, the “GM-CSFR FOLD” value ([2]; AML03-331) was 0.88 and the “IL-3R FOLD” value ([2]; AML03-331) was 1.00. For the same molecule, the “KIT FOLD” value ([2]; AML03-331) was 0.98, the “GM-CSFR MFI” value ([2]; AML4) was 853 MFI and the “IL-3R MFI” value ([2]; AML4) was 1014 MFI. The “KIT MFI” value ([2]; AML4) was 5020 MFI, the “GM-CSFR FOLD” value ([2]; AML4) was 1.48 and the “IL-3R FOLD” value ([2]; AML4) was 0.99. The “KIT FOLD” value ([2]; AML4) was 0.98, the “GM-CSFR MFI” value ([2]; AML16) was 4656 MFI and the “IL-3R MFI” value ([2]; AML16) was 827 MFI. The “KIT MFI” value ([2]; AML16) was 6207 MFI, the “GM-CSFR FOLD” value ([2]; AML16) was 0.80 and the “IL-3R FOLD” value ([2]; AML16) was 0.78. The “KIT FOLD” value ([2]; AML16) was 0.87, the “GM-CSFR MFI” value ([2]; AML17) was 9268 MFI and the “IL-3R MFI” value ([2]; AML17) was 6591 MFI. The “KIT MFI” value ([2]; AML17) was 21009 MFI, the “GM-CSFR FOLD” value ([2]; AML17) was 1.01 and the “IL-3R FOLD” value ([2]; AML17) was 1.12. For the same molecule, the “KIT FOLD” value ([2]; AML17) was 1.17, the “GM-CSFR MFI” value ([2]; AML18) was 13295 MFI and the “IL-3R MFI” value ([2]; AML18) was 2046 MFI. The “KIT MFI” value ([2]; AML18) was 1285 MFI, the “GM-CSFR FOLD” value ([2]; AML18) was 1.08 and the “IL-3R FOLD” value ([2]; AML18) was 1.00. For the same molecule, the “KIT FOLD” value ([2]; AML18) was 1.36, the “GM-CSFR MFI” value ([2]; AML34) was 3573 MFI and the “IL-3R MFI” value ([2]; AML34) was 397 MFI. The “KIT MFI” value ([2]; AML34) was 4661 MFI, the “GM-CSFR FOLD” value ([2]; AML34) was 1.00 and the “IL-3R FOLD” value ([2]; AML34) was 0.99. For the same molecule, the “KIT FOLD” value ([2]; AML34) was 1.07, the “GM-CSFR MFI” value ([2]; AML54) was 1872 MFI and the “IL-3R MFI” value ([2]; AML54) was 508 MFI. The “KIT MFI” value ([2]; AML54) was 10397 MFI, the “GM-CSFR FOLD” value ([2]; AML54) was 1.08 and the “IL-3R FOLD” value ([2]; AML54) was 0.86. The “KIT FOLD” value ([2]; AML54) was 0.90 and the “internalization of IL-3R and GM-CSFR” value ([2]; patient-derived AML cells stimulated with IL-3 and GM-CSF, result in words) was “prevented the internalization”.
